Laboratory results published in patent US8697691B2, “Alkyl 3-((2-amidoethyl)amino)-8-azabicyclo[3.2.1]octane-8-carboxylate analogs as selective M1 agonists and methods of making and using same” (Vanderbilt University, priority 2009, dated 2014).
Like-named read-outs stand apart in the source and are kept apart here.

Columns and labels:
[1] = target: hM2 receptor (Homo sapiens, UniProt P08172); assay: Calcium mobilization assay, CHO cells stably expressing hM2-Gqi5; assay type: cell-based
Source text: Chinese hamster ovary (CHO-K1) cells stably expressing rat (r)M1 were purchased from the American Type Culture Collection and cultured according to their indicated protocol. CHO cells stably expressing human (h)M2, hM3, and hM5 were described previously (Levey et al., 1991); hM1 and hM4 cDNAs were purchased from Missouri S&T cDNA Resource; rM4 cDNA was provided by T. I. Bonner (National Institutes of Health, Bethesda, Md.). hM1, hM4, and rM4 cDNAs were used to stably transfect CHO-K1 cells purchased from the American Type Culture Collection using Lipofectamine2000. […]
For low throughput measurement of agonist-evoked increases in intracellular calcium, CHO-K1 cells stably expressing muscarinic receptors were plated in 100 μL of growth medium at 5×10^4 (rM1, hM3, and hM5) or 6×10^4 cells per well (rM1 Y381A, hM2, and rM4) in Costar 96-well black-walled, tissue culture (TC)-treated, clear-bottom plates (Fisher). […] For calcium fluorescence measurements, CRCs of compounds (50 μl, 2×) were added 19 s after the beginning of data collection via a Flexstation II (Molecular Devices, Sunnyvale, Calif.). Fluorescence imaging continued for a total of 130 s acquisition time using an excitation wavelength of 488 nm, an emission wavelength of 525 nm, and a cutoff wavelength of 515 nm. […]

[2] = target: T1, human M1 receptor (Homo sapiens, UniProt P11229); assay: Calcium mobilization assay, CHO-K1 cells stably expressing hM1 (high throughput, FDSS 6000); assay type: cell-based; settings: for Emax: CHO-K1, read-out: Efficacy (% Max ACh)
T1 construct: host or cells: CHO-K1
T1 sequence (P11229 1-460): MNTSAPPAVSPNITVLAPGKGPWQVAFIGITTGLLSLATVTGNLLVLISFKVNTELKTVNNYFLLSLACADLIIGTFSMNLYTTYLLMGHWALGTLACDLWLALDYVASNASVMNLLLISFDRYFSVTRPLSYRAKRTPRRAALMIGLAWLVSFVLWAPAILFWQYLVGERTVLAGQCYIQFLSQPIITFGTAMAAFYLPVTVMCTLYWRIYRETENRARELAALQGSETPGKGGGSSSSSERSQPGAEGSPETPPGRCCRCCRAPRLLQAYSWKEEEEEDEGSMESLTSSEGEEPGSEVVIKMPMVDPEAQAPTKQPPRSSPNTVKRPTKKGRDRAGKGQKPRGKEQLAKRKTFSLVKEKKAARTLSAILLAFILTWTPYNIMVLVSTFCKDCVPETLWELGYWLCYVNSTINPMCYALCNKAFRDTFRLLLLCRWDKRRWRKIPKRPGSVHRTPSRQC
Source text: Chinese hamster ovary (CHO-K1) cells stably expressing rat (r)M1 were purchased from the American Type Culture Collection and cultured according to their indicated protocol. CHO cells stably expressing human (h)M2, hM3, and hM5 were described previously (Levey et al., 1991); hM1 and hM4 cDNAs were purchased from Missouri S&T cDNA Resource; rM4 cDNA was provided by T. I. Bonner (National Institutes of Health, Bethesda, Md.). hM1, hM4, and rM4 cDNAs were used to stably transfect CHO-K1 cells purchased from the American Type Culture Collection using Lipofectamine2000. To make stable hM2, hM4 and rM4 cell lines for use in calcium mobilization assays, these cells also were stably transfected with a chimeric G-protein (Gqi5) (provided by B. R. Conklin, University of California, San Francisco) using Lipofectamine 2000. rM1, hM3, and hM5 cells were grown in Ham's F-12 medium containing 10% heat-inactivated fetal bovine serum (FBS), 20 mM HEPES, and 50 μg/mL G418 sulfate. hM2-Gqi5 and hM4-Gqi5 cells were grown in the same medium also containing 500 μg/mL Hygromycin B. Stable rM4-Gqi5 cells were grown in DMEM containing 10% heat-inactivated FBS, 20 mM HEPES, 400 μg/mL G418 sulfate, and 500 μg/mL Hygromycin B. The rat M1 Y381A orthosteric mutant receptor cDNA was generated using the Quik-Change site-directed mutagenesis kit (Stratagene) and verified by sequencing. CHO-K1 cells were stably transfected with this cDNA using Lipofectamine2000 and screened for expression based on calcium mobilization in response to the allosteric M1 agonist N-desmethylclozapine.
For high throughput measurement of agonist-evoked increases in intracellular calcium, CHO-K1 cells stably expressing muscarinic receptors were plated in growth medium lacking G418 and hygromycin at 15,000 cells/20 μL/well (hM1, hM2-Gqi5, hM3, hM4-Gq15, and hM5) in Greiner 384-well black-walled, tissue culture (TC)-treated, clear-bottom plates (VWR). Cells were incubated overnight at 37° C. and 5% CO2. The next day, cells were washed using an ELX 405 (BioTek) with three washes (50 μL) of assay buffer then aspirated to 15 μL. Next, 5 μL of 8 μM Fluo-4/acetoxymethyl ester (Invitrogen, Carlsbad, Calif.) prepared as a 2.3 mM stock in DMSO and mixed in a 1:1 ratio with 10% (w/v) Pluronic F-127 and diluted in assay buffer was added to the wells and the cell plates were incubated for 45 min at 37° C. and 5% CO2. Dye was removed by washing with the ELX 405 (three 50 μL washes of assay buffer) then aspirated to 20 μL. Agonist and compound master plates were formatted in an 11 point CRC format (1:3 dilutions) in 100% DMSO with a starting concentration of 10 mM using the BRAVO liquid handler (Agilent). Test compound CRCs were then transferred to daughter plates ([…]) using the Echo acoustic plate reformatter (Labcyte, Sunnyvale, Calif.) and then diluted into assay buffer (40 μL) to a 2× stock using a Thermo Fisher Combi (Thermo Fisher Scientific, Waltham, Mass.). Calcium flux was measured using the Functional Drug Screening System (FDSS) 6000 (Hamamatsu Corporation, Tokyo, Japan) as an increase in the fluorescent static ratio. 20 μL of Agonist Compounds were applied to cells using the automated system of the FDSS 6000 at 4 s into the 300 s protocol and the data were collected at 1 Hz. Concentration-response curves were generated using a four-parameter logistical equation in XLfit curve fitting software (IDBS, Bridgewater, N.J.) for Excel (Microsoft, Redmond, Wash.) or Prism (GraphPad Software, Inc., San Diego, Calif.).

hM2 receptor, sequence (P08172 whole entry): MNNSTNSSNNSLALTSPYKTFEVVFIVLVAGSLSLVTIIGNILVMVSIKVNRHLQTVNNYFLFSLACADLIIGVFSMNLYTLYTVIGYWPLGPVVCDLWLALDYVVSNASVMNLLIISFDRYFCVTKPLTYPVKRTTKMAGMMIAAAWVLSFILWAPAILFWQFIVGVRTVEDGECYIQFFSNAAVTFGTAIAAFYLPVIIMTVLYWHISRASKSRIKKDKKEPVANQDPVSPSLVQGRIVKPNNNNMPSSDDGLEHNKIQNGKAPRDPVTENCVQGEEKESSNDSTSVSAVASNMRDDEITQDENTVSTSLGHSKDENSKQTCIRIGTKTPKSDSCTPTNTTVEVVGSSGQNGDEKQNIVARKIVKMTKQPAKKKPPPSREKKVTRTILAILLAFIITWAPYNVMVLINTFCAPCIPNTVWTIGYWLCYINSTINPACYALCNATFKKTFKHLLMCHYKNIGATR

| SMILES | EC50 [1] | Emax [2] | EC50 ([2]; figure legends FIG. 1.0, 1.1, dose response data, read-out: EC50 for hM1) | EC50 [2] | EC50 ([2]; human M1, agonist-evoked calcium mobilization in CHO-K1 cells, read-out: Potency (EC50)) |
| --- | --- | --- | --- | --- | --- |
| CCOC(=O)N1[C@@H]2CC[C@H]1C[C@H](NCCNC(=O)c1ccccc1)C2 [Example 26, ethyl 3-((3-exo)-(2-benzamidoethyl)amino)-8-azabicyclo[3.2.1]octane-8-carboxylate] | > 10 µM | 57% | 1200 nM |  |  |
| CCOC(=O)N1[C@@H]2CC[C@H]1C[C@@H](NCCNC(=O)c1ccccc1)C2 [Example 27, ethyl 3-((3-endo)-(2-benzamidoethyl)amino)-8-azabicyclo[3.2.1]octane-8-carboxylate] | ~3 µM | 37% |  | 214 nM | 210 nM |
